≈ marks a conversion by molar mass, not a printed value. Where “and” joins values, the source holds several entries; their conditions need not be identical. Equal values may be shown once.
Key:
[1] = system: S. aureus (MRSA) ATCC 43300; assay: Antibacterial MIC assay, S. aureus (MRSA); assay type: cell-based, Staphylococcus aureus; conditions: CAMHB, 18 h, growth inhibited by ≥ 80%, range tested 0.25 to 32 μg/mL, n = 2
Protocol: (§1) Dry compounds were dissolved in dimethyl sulfoxide (DMSO), and serially diluted 2-fold to produce an 8-point dose response with DMSO/water and then added into microtiter plates with a final DMSO concentration of 0.5%, providing a concentration range of 0.25 to 32 μg/mL. Screening against bacteria and yeasts for antimicrobial activity and toxicity against mammalian cells was performed in duplicate (n = 2).
For the bacterial assays, each bacterial strain was cultured in Cation-Adjusted Mueller Hinton Broth (CAMHB; Bacto Laboratories 212322) at 37 °C overnight. Bacterial strains tested were methicillin resistant S. aureus (methicillin-resistant Staphylococcus aureus - MRSA) ATCC 43300, E. coli ATCC 25922, K. pneumoniae K6/ESBL ATCC 700603, P. aeruginosa ATCC 27853, A. baumannii ATCC 19606. A sample of each culture was then diluted 40-fold in fresh CAMHB and incubated at 37 °C for 1.5–3 h. The resultant mid-log phase cultures were diluted with CAMHB (CFU/mL measured by OD600), then added to each well of the compound-containing plates (384-well non-binding surface (NBS) plates; Corning CLS3640), giving a final cell density of 5 × 10^5 CFU/mL and a total volume of 50 μL. Plates were covered and incubated at 37 °C for 18 h without shaking. Inhibition of bacterial growth was determined by measuring absorbance at 600 nm (OD600), using media only as negative control and bacteria without inhibitors as positive control. MIC values were determined as the lowest concentration at which the growth was inhibited by ≥ 80% (equivalent to no visible growth by eye). Colistin sulfate (Sigma Aldrich, Castle Hill, Australia C4461) and vancomycin HCl (Sigma Aldrich, 861987) were used as positive inhibitor controls on each plate for Gram-negative and Gram-positive bacteria, respectively.

C. albicans ATCC 90028 = assay: Antifungal MIC assay, C. albicans; assay type: cell-based, Candida albicans; conditions: YNB, 35 °C, 36 h, growth inhibited ≥ 80%; range tested 0.25 to 32 μg/mL; n = 2
Protocol: as §1, with “All screened compounds were > 95% purity as determined by NMR. Dry” for “Dry”
For the fungal assays, yeast strains C. neoformans var. grubii H99 ATCC 208821 and C. albicans ATCC 90028 were cultured for 3 days on Yeast Extract-Peptone Dextrose (YPD; Becton Dickinson 242720) agar at 30 °C. A yeast suspension of 1 × 10^6 to 5 × 10^6 CFU/mL (as determined by OD530) was prepared from five colonies form the agar plates, and subsequently diluted with Yeast Nitrogen Base media (YNB; Becton Dickinson 233520), and added to each well of the compound containing plates (384-well plates, NBS; Corning CLS3640) giving a final cell density of 2.5 × 10^3 CFU/mL and a total volume of 50 μL. Plates were covered and incubated at 35 °C for 36 h without shaking. Growth inhibition of C. albicans was determined measuring absorbance at 630 nm (OD630), while the growth inhibition of C. neoformans was determined measuring the difference in absorbance between 600 and 570 nm (OD600-570), after the addition of resazurin (0.001% final concentration; Sigma R7017) and incubation at 35 °C for 2 h, using media only as negative control and fungi without inhibitors as positive control. MIC values were determined as the lowest concentration at which the growth was inhibited at ≥ 80% (equivalent to no visible growth by eye). Fluconazole (Sigma Aldrich, F8929) was used as a positive inhibitor control on each plate for both strains.

[2] = system: human embryonic kidney cells (HEK293, ATCC CRL-1573); assay: Cytotoxicity assay (resazurin); assay type: cell-based; conditions: HEK293, 20 h incubation
Protocol: Screening against bacteria and yeasts for antimicrobial activity and toxicity against mammalian cells was performed in duplicate (n = 2). […] HEK293 cells were counted manually in a Neubauer hemocytometer and added to compound-containing plates (384-well plates, tissue culture treated (TC); Corning CLS3712) giving a final density of 5000 cells/well in a total volume of 50 μL, using Dulbecco's Modified Eagle Medium (DMEM; Life Technologies 11995-073) with 10% Fetal Bovine Serum (FBS; GE SH30084.03). […] Sigma R7017) and after further incubation for 3 h at 37 °C in 5% CO2. Media only was used as negative control and cells without inhibitors as positive growth control. CC50 (concentration at 50% cytotoxicity) values were calculated by curve fitting the inhibition values vs. log(concentration) using a sigmoidal dose-response function, with variable fitting values for bottom, top and slope. Tamoxifen (Sigma Aldrich, Australia T5648) was used as positive inhibitor control on each plate. Selectivity indices (SI) were calculated by dividing the CC50 value (μg/mL) by the MIC value (μg/mL) for a given bacterial or fungal strain.

[3] = system: human red blood cells (HRBC); assay: Haemolysis assay; assay type: cell-based; conditions: 1 h at 37 °C
Protocol: as §1, with “All screened compounds were > 95% purity as determined by NMR. Dry” for “Dry”
Hemolytic activity was assessed against human red blood cells (HRBC), with data presented as HC10, corresponding to the concentration of the compound causing 10% hemolysis. Human whole blood (Australian Red Cross) was washed three times with 3 volumes of 0.9% NaCl and resuspended in a concentration of 0.5 × 10^8 cells/mL, determined by manual cell count in a Neubauer hemocytometer. Washed cells were added to compound containing plates (384-well polypropylene plates (PP); Corning 3657) for a final volume of 50 μL. The plate was shaken with incubation for 1 h at 37 °C. After incubation, the plates were centrifuged at 1000× g for 10 min to pellet cells and debris. Supernatant (25 μL) was then transferred to reading plates (384-well, polystyrene plated (PS), Corning CLS3680), with hemolysis determined by measuring the supernatant absorbance at […] (OD405), using cells without inhibitors as negative control and cells with 1% Triton X-100 (Sigma T8787) as positive control. HC10 and HC50 (concentration at 10% and 50% hemolysis, respectively) were calculated by curve fitting the inhibition values vs. log(concentration) using a sigmoidal dose-response function with variable fitting values for top, bottom and slope. Melittin (Sigma M2272) was used as positive hemolytic control on each plate. Human blood was sourced from the Australian Red Cross Blood Service. Selectivity indices (SI) were calculated by dividing the HC10 value (μg/mL) by the MIC value (μg/mL) for a given bacterial or fungal strain.

[4] = system: C. neoformans var. grubii H99 ATCC 208821; assay: Antifungal MIC assay, C. neoformans; assay type: cell-based, Cryptococcus neoformans; conditions: 35 °C, 36 h, resazurin, growth inhibited ≥ 80%, range tested 0.25 to 32 μg/mL; for Minimum inhibitory concentration (MIC) C. neoformans ATCC 208821: YNB, n = 2
Protocol: Screening against bacteria and yeasts for antimicrobial activity and toxicity against mammalian cells was performed in duplicate (n = 2). […] Becton Dickinson 242720) agar at 30 °C. A yeast suspension of 1 × 10^6 to 5 × 10^6 CFU/mL (as determined by OD530) was prepared from five colonies form the agar plates, and subsequently diluted with Yeast Nitrogen Base media (YNB; Becton Dickinson 233520), and added to each well of the compound containing plates (384-well plates, NBS; […] Plates were covered and incubated at 35 °C for 36 h without shaking. […] Fluconazole (Sigma Aldrich, F8929) was used as a positive inhibitor control on each plate for both strains.

| Minimum inhibitory concentration (MIC) S. aureus ATCC 43300 [1] | Minimum inhibitory concentration (MIC) C. albicans ATCC 90028 (C. albicans ATCC 90028) | Minimum inhibitory concentration (MIC) C. neoformans ATCC 208821 [4] | MIC ([4]; Cryptococcus neoformans, ATCC208821, YNB, n = 2, read-out: Minimum inhibitory concentration (MIC) C. neoformans ATCC 208821) | SMILES | CC50 (concentration of 50% cytotoxicity) [2] | HC10 (concentration of 10% haemolysis) [3] |
| --- | --- | --- | --- | --- | --- | --- |
| 16 µg/mL | 2 µg/mL | 0.5 µg/mL | – | CC12CCC(C(=NC(c3ccccc3)c3cccc[c]3[Pd][Cl])C1=O)C2(C)C.CC12CCC(C(=NC(c3ccccc3)c3cccc[c]3[Pd][Cl])C1=O)C2(C)C (centres unmarked) [Compound 3] | 6.0 µg/mL | – |
| 32 µg/mL | – | – | – | C[C@H](N[C@@H]1C[C@H]2C[C@H](C2(C)C)[C@@]1(C)O)c1cccc[c]1[Pd][Cl].C[C@H](N[C@@H]1C[C@H]2C[C@H](C2(C)C)[C@@]1(C)O)c1cccc[c]1[Pd][Cl] [Compound 4] | 16.6 µg/mL | – |
| 8 µg/mL | 4—16 μg/mL and 8 μg/mL | 4—16 μg/mL and 4 μg/mL | – | CC(C)(C)c1cc(C=NCCN=C2C[C@H]3C[C@H](C3(C)C)[C@@]2(C)O)c([O][Pd][Cl])c(C(C)(C)C)c1 [Compound 6] | 4.5 µg/mL | – |
| >32 µg/mL | – | 4—16 μg/mL and 4 μg/mL | – | CC12CCC(CC1=NCCN=Cc1ccccc1[O][Pd][Cl])C2(C)C (centres unmarked) [Compound 7] | >32 µg/mL | – |
| >32 µg/mL | 8—16 μg/mL and 8 μg/mL | 2—4 μg/mL and 4 μg/mL | – | CC1(C)[C@H]2CC(=NCCN)[C@](C)(O)[C@@H]1C2.[Cl][Pd][Cl] [Compound 8] | >32 µg/mL | – |
| >32 µg/mL | 8—16 μg/mL and 16 μg/mL | 2—4 μg/mL and 2 μg/mL | – | CN(C)CCN=C1C[C@H]2C[C@H](C2(C)C)[C@@]1(C)O.[Cl][Pd][Cl] [Compound 9] | >32 µg/mL | – |
| >32 µg/mL | 4 µg/mL | 4 µg/mL | – | CC1(C)[C@@H]2C[C@H]1[C@@](C)(O)[C@H](NCCN[C@@H]1C[C@H]3C[C@H](C3(C)C)[C@@]1(C)O)C2.[Cl][Pd][Cl] [Compound 10] | >32 µg/mL | – |
| >32 µg/mL | – | – | – | CN(C)CCN=CC1=CCC2CC1C2(C)C.[Cl][Pd][Cl] (centres unmarked) [Compound 11] | 10.8 µg/mL | – |
| – | 2 µg/mL | – | – | CN(C)CCNCC1=CCC2CC1C2(C)C.[Cl][Pd][Cl] (centres unmarked) [Compound 12] | >32 µg/mL | – |
| – | – | – | 8 µg/mL (≈ 26.1 µM) | OC(Cn1cncn1)(Cn1cncn1)c1ccc(F)cc1F [fluconazole, Fluconazole, reference compound] | – | – |
| – | – | – | – | CC[C@H](C)[C@H](NC(=O)CN)C(=O)NCC(=O)N[C@@H](C)C(=O)N[C@H](C(=O)N[C@@H](CC(C)C)C(=O)N[C@@H](CCCCN)C(=O)N[C@H](C(=O)N[C@@H](CC(C)C)C(=O)N[C@H](C(=O)N[C@H](C(=O)NCC(=O)N[C@@H](CC(C)C)C(=O)N1CCC[C@H]1C(=O)N[C@@H](C)C(=O)N[C@@H](CC(C)C)C(=O)N[C@H](C(=O)N[C@@H](CO)C(=O)N[C@@H](Cc1c[nH]c2ccccc12)C(=O)N[C@H](C(=O)N[C@@H](CCCCN)C(=O)N[C@@H](CCCNC(=N)N)C(=O)N[C@@H](CCCCN)C(=O)N[C@@H](CCCNC(=N)N)C(=O)N[C@@H](CCC(N)=O)C(=O)N[C@@H](CCC(N)=O)C(N)=O)[C@@H](C)CC)[C@@H](C)CC)[C@@H](C)O)[C@@H](C)O)C(C)C)C(C)C [melittin, Melittin, reference compound] | – | 2.7 µg/mL |

| SMILES | Minimum inhibitory concentration (MIC) S. aureus ATCC 43300 [1] | Minimum inhibitory concentration (MIC) C. albicans ATCC 90028 (C. albicans ATCC 90028) | Minimum inhibitory concentration (MIC) C. neoformans ATCC 208821 [4] | MIC ([4]; Cryptococcus neoformans, ATCC208821, YNB, n = 2, read-out: Minimum inhibitory concentration (MIC) C. neoformans ATCC 208821) | CC50 (concentration of 50% cytotoxicity) [2] | HC10 (concentration of 10% haemolysis) [3] |
| --- | --- | --- | --- | --- | --- | --- |
| C[C@H](N=C1C[C@H]2C[C@H](C2(C)C)[C@@]1(C)O)c1cccc[c]1[Pd][Cl].C[C@H](N=C1C[C@H]2C[C@H](C2(C)C)[C@@]1(C)O)c1cccc[c]1[Pd][Cl] [Compound 1] | 4 µg/mL | 1 µg/mL | 0.5 µg/mL | – | 11.9 µg/mL | 3.9 µg/mL |
| C[C@H](N[C@@H]1C[C@H]2C[C@H](C2(C)C)[C@@]1(C)O)c1cccc[c]1[Pd]([Cl])[P](c1ccccc1)(c1ccccc1)c1ccccc1 [Compound 5, (+)-trans-Chloro{(1R,2R,3R,5R)-3-((S)-1′-phenylethylamino)-2,6,6-trimethylbicyclo[3.1.1]heptane-2-ol-C,N}(triphenylphosphine)palladium(II)] | 16 µg/mL | 2 µg/mL | 1 µg/mL | – | 2.9 µg/mL | 5.6 µg/mL |

Source: paper PMC7277541, “Antimicrobial and Antifungal Activities of Terpene-Derived Palladium Complexes” (Antibiotics, 2020)
